The target of experiment [1] is T1, κ opioid receptor (Homo sapiens (Human), UniProt P41145). The experiment can be described thus: κ-opioid receptor [35S]GTPγS functional assay, HEK-293 or CHO cells. The settings on record: for EC50: GTPγS; for Emax: relative to U69,593. It is filed as biochemical. The protocol:
(§1) κ-Opioid Receptor Functional Assay Procedures: Functional [^35S]GTPγS binding assays were conducted as follows. κ opioid receptor membrane solution was prepared by sequentially adding final concentrations of 0.026 μg/μl κ membrane protein (in-house), 10 μg/mL saponin, 3 μM GDP and 0.20 nM [^35S]GTPγS to binding buffer (100 mM NaCl, 10 mM MgCl2, 20 mM HEPES, pH 7.4) on ice. The prepared membrane solution (190 μl/well) was transferred to 96-shallow well polypropylene plates containing 10 μl of 20× concentrated stock solutions of agonist prepared in DMSO. Plates were incubated for 30 min at a temperature of about 25° C. with shaking. Reactions were terminated by rapid filtration onto 96-well Unifilter GF/B filter plates (Perkin Elmer, Shelton, Conn.) using a 96-well tissue harvester (Packard) and followed by three filtration washes with 200 μl ice-cold binding buffer (10 mM NaH2PO4, 10 mM Na2HPO4, pH 7.4). Filter plates were subsequently dried at 50° C. for 2-3 hours. Fifty μl/well scintillation cocktail (Perkin Elmer, Shelton, Conn.) was added and plates were counted in a Packard Top-Count for 1 min/well.
(§2) κ-Oploid Receptor Functional Data: κ GTP EC50 is the concentration of a compound providing 50% of the maximal response for the compound at a K receptor.
(§3) κ GTP Emax (%) is the maximal effect elicited by a compound relative to the effect elicited by U69,593.
(§4) In TABLE 2, activity response of certain Compounds of the Invention to the μ-, δ- and κ-opioid receptors was determined as described above for functional assays using HEK-293 or CHO cells.
On the technique in general: GTPγS is a poorly hydrolysed GTP analogue; its binding reports G protein activation.

Experiment [2] deals with T2, μ-opioid receptor (Homo sapiens (Human), UniProt P35372). The experiment can be described thus: μ-opioid receptor radioligand dose-displacement binding assay ([3H]-diprenorphine). The protocol:
μ-Opioid Receptor Binding Assay Procedures: Radioligand dose-displacement binding assays for μ-opioid receptors used 0.3 nM [^3H]-diprenorphine (Perkin Elmer, Shelton, Conn.), with […] membrane protein/well in a final volume of 500 μl binding buffer (10 mM MgCl2, 1 mM EDTA, 5% DMSO, 50 mM HEPES, pH 7.4). Reactions were carried out in the absence or presence of increasing concentrations of unlabeled naloxone. All reactions were conducted in 96-deep well polypropylene plates for 2 hours at room temperature. Binding reactions were terminated by rapid filtration onto 96-well Unifilter GF/C filter plates (Perkin Elmer, Shelton, Conn.), presoaked in 0.5% polyethylenimine using a 96-well tissue harvester (Perkin Elmer, Shelton, Conn.) followed by performing three filtration washes with 500 μl of ice-cold binding buffer. Filter plates were subsequently dried at 50° C. for 2-3 hours. BetaScint scintillation cocktail (Perkin Elmer, Shelton, Conn.) was added (50 μl/well), and plates were counted using a Packard Top-Count for 1 min/well. The data were analyzed using the one-site competition curve fitting functions in GraphPad PRISM™ v. 3.0 or higher (San Diego, Calif.), or an in-house function for one-site competition curve-fitting.
(§5) In TABLE 1, binding affinity of certain Compounds of the Invention to the μ-, δ- and κ-opioid receptors was determined as described above.

Experiment [3] has as its target T2, μ-opioid receptor. The experiment can be described thus: μ-opioid receptor [35S]GTPγS functional assay, HEK-293 or CHO cells. It is filed as biochemical. Particulars: for EC50: GTPγS; for Emax: relative to DAMGO. The procedure: (§6) μ-Opioid Receptor Functional Assay Procedures: [^35S]GTPγS functional assays were conducted using freshly thawed μ-receptor membranes prepared in-house from a cell line expressing recombinant μ opioid receptor in a HEK-293, CHO or U-2 OS cell background, or purchased from a commercial source (Perkin Elmer, Shelton, Conn.; or DiscovRx, Fremont, Calif.). Assay reactions were prepared by sequentially adding the following reagents to binding buffer (100 mM NaCl, 10 mM MgCl2, 20 mM HEPES, pH 7.4) on ice (final concentrations indicated): membrane protein (0.026 mg/mL), saponin ([…]), GDP ([…]) and [^35S]GTPγS (0.20 nM; Perkin Elmer, Shelton, Conn.). The prepared membrane solution (190 μl/well) was transferred to 96-shallow well polypropylene plates containing 10 μl of 20× concentrated stock solutions of the agonist [D-Ala^2, N-methyl-Phe^4 Gly-ol^5]-enkephalin (DAMGO) prepared in dimethyl sulfoxide (DMSO). Plates were incubated for 30 min at about 25° C. with shaking. Reactions were terminated by rapid filtration onto 96-well Unifilter GF/B filter plates (Perkin Elmer, Shelton, Conn.) using a 96-well tissue harvester (Perkin Elmer, Shelton, Conn.) followed by three filtration washes with 200 μl of ice-cold wash buffer (10 mM NaH2PO4, 10 mM Na2HPO4, pH 7.4). Filter plates were subsequently dried at 50° C. for 2-3 hours. BetaScint scintillation cocktail (Perkin Elmer, Shelton, Conn.) was added (50 μl/well) and plates were counted using a Packard Top-Count for 1 min/well. Data were analyzed using the sigmoidal dose-response curve fitting functions in GraphPad PRISM v. 3.0, or an in-house function for non-linear, sigmoidal dose-response curve-fitting.
(§7) μ-Opioid Receptor Functional Data: μ GTP EC50 is the concentration of a compound providing 50% of the maximal response for the compound at a μ-opioid receptor.
(§8) μ GTP Emax (%) is the maximal effect elicited by a compound relative to the effect elicited by DAMGO, a standard μ agonist. Generally, the μ GTP Emax (%) value measures the efficacy of a compound to treat or prevent pain or other Conditions.
as §4

Experiment [4] has as its target recombinant human kappa opioid receptor (κ) (Homo sapiens (Human), UniProt P41145). The experiment can be described thus: κ-opioid receptor radioligand dose-displacement binding assay ([3H]-U69,593). The protocol:
κ-Opioid Receptor Binding Assay Procedures: Membranes from HEK-293 cells, CHO or U-2 OS cells expressing the recombinant human kappa opioid receptor (κ) (cloned in house) were prepared by lysing cells in ice cold hypotonic buffer (2.5 mM MgCl2, 50 mM HEPES, pH 7.4) (10 mL/10 cm dish) followed by homogenization with a tissue grinder/Teflon pestle. Membranes were collected by centrifugation at 30,000×g for 15 min at 4° C. and pellets were resuspended in hypotonic buffer to a final concentration of 1-3 mg/mL. Protein concentrations were determined using the BioRad protein assay reagent with bovine serum albumen as standard. Aliquots of κ receptor membranes were stored at −80° C.
Radioligand dose displacement assays used 0.4 nM [^3H]-U69,593 (GE Healthcare, Piscataway, N.J.; 40 Ci/mmole) with 15 μg membrane protein (recombinant κ opioid receptor expressed in HEK 293 cells; in-house prep) in a final volume of 200 μl binding buffer (5% DMSO, 50 mM Trizma base, pH 7.4). Non-specific binding was determined in the presence of 10 μM unlabeled naloxone or U69,593. All reactions were performed in 96-well polypropylene plates for 1 hour at a temperature of about 25° C. Binding reactions were terminated by rapid filtration onto 96-well Unifilter GF/C filter plates (Perkin Elmer, Shelton, Conn.) presoaked in 0.5% polyethylenimine (Sigma). Harvesting was performed using a 96-well tissue harvester (Perkin Elmer, Shelton, Conn.) followed by five filtration washes with 200 μl ice-cold binding buffer. Filter plates were subsequently dried at 50° C. for 1-2 hours. Fifty μl/well scintillation cocktail (Perkin Elmer, Shelton, Conn.) was added and plates were counted in a Packard Top-Count for 1 min/well.
as §5

Experiment [5] addresses T1, κ opioid receptor. The experiment can be described thus: κ-opioid receptor [35S]GTPγS functional assay, U-2 OS cells. Format: biochemical. The protocol:
as §1, §2, §3
(§9) The following TABLE 3 provides results on the activity response of certain Compounds of the Invention at the μ- and κ-opioid receptors determined as described above using U-2 OS cells.

In experiment [6] the target is T2, μ-opioid receptor. The experiment can be described thus: μ-opioid receptor [35S]GTPγS functional assay, U-2 OS cells. Format: biochemical. The procedure: as §6, §7, §8, §9

The term EC50 denotes the concentration that produces a half-maximal response. A low value points to an effect from little substance. Usually Emax stands for the maximal effect, on the per cent scale that the assay sets. Broadly, the Ki is the dissociation constant of the complex between target and ligand, obtained from inhibition or displacement. On to `O=C1C[C@]23CCN(CC4CC4)[C@H](Cc4ccc(O)cc42)C3=CN1Cc1ccc(O)cc1` [Compound 6, (5R,10bR)-13-(cyclopropylmethyl)-9-hydroxy-3-(4-hydroxybenzyl)-5,6-dihydro-1H-5,10b-(epiminoethano)benzo[f]isoquinolin-2(3H)-one], for which the figures for the concentration for a half-maximal effect (EC50) in experiment [1] and in experiment [3] were 30.6 ± 6.75 nM and 57.5 ± 15.5 nM, respectively. For the same molecule, the Emax in experiment [1] came to 41.7%; in experiment [3], 28%. Also, the figures for the Ki in experiment [2] and in experiment [4] were 22.8 ± 8.32 nM and 1.27 ± 0.19 nM, respectively.
For the molecule `O=C(O)CN1CC[C@]23CCN(CC4CC4)[C@H](Cc4ccc(O)cc42)[C@@H]3C1` [Compound 15, 2-((4aS,5R,10bR)-13-(cyclopropylmethyl)-9-hydroxy-4,4-a,5,6-tetrahydro-1H-5,10b-(epiminoethano)benzo[f]isoquinolin-3(2H)-yl)acetic acid], the EC50 in experiment [5] (GTPγS) amounted to 5.44 ± 0.39 nM; in experiment [1] it was 55 ± 18.9 nM; in experiment [6] (GTPγS), 20.8 ± 0.89 nM; in experiment [3] it was 28.6 ± 9.31 nM. The maximal effect (Emax) worked out at 108 ± 4.7% in experiment [5] (relative to U69,593), 73.3% in experiment [1], 27 ± 3% in experiment [6] (relative to DAMGO) and 53.3% in experiment [3]. Also, in experiment [4], the inhibition constant (Ki) is 2.52 ± 0.97 nM.
